What was measured:
Format in all cases: biochemical
[1] = biological target: T1, human JAK2 (aa 826-1132) (Homo sapiens, UniProt O60674); assay: In vitro JAK kinase assay (TR-FRET), JAK2; conditions: catalytic domain GST-fusion; ATP 0.2 μM; peptide 20 nM; 30 minutes at room temperature
T1 construct: JAK2 (aa 826-1132); GST (N); purchased Carna Biosciences; host or cells: baculovirus expression system
Procedure: (§1) Compounds were screened for their ability to inhibit JAK1, JAK2 and JAK3 using the assays as indicated below.
(§2) The catalytic domains of human JAK1 (aa 850-1154), JAK2 (aa 826-1132), JAK3 (aa 795-1124) and Tyk2 (aa 871-1187) were expressed as N-terminal GST-fusion proteins using a baculovirus expression system and were purchased from Carna Biosciences. The enzymatic activity was assayed using as substrate a biotinylated peptide, poly (GT)-Biotin (CisBio). The peptide concentration in the reactions was 60 nM for JAK1, 20 nM for JAK2, 140 nM for JAK3 and 50 nM for Tyk2. The degree of phosphorylation was detected by TR-FRET (time-resolved fluorescence energy transfer). IC50s of compounds were measured for each kinase in a reaction mixture containing the enzyme, ATP and the peptide in 8 mM MOPS (pH 7.0), 10 mM MgCl2, 0.05% β-mercaptoethanol, 0.45 mg/ml BSA. The ATP concentration in the reactions was 3 μM for JAK1, 0.2 μM for JAK2, 0.6 μM for JAK3 and 1.8 μM for Tyk2. The enzymatic reactions took place for 30 minutes at room temperature. Then, the reactions were stopped with 20 μL of quench detection buffer (50 mM HEPES, 0.5 M KF, EDTA 0.25 M, 0.1% (w/v) BSA, pH 7.5) containing 0.115 μg/mL of anti-phosphoTyr (PT66)-Cryptate (CisBio) and a variable concentration of SA-XL665 (CisBio) to keep the SA-B ratio constant. Incubate for 3 h and read on Victor 2V spectrofluorometer (PerkinElmer) set to read fluorescence resonance energy transfer.

[2] = biological target: T2, human JAK3 (aa 795-1124) (Homo sapiens, UniProt P52333); assay: In vitro JAK kinase assay (TR-FRET), JAK3; conditions: catalytic domain GST-fusion; ATP 0.6 μM; peptide 140 nM; 30 minutes at room temperature
T2 construct: JAK3 (aa 795-1124); GST (N); purchased Carna Biosciences; host or cells: baculovirus expression system
T2 sequence (P52333 795-1124): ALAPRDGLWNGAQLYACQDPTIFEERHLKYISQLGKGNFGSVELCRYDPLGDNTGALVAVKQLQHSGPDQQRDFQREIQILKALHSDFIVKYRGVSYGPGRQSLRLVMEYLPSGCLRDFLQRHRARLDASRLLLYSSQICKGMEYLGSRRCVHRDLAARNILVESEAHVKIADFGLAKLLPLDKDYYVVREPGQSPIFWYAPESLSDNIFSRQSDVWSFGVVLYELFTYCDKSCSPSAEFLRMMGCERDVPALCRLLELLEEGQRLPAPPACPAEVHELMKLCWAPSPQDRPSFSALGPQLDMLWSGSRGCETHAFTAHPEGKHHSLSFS
Procedure: as §1, §2

[3] = biological target: T3, human JAK1 (aa 850-1154) (Homo sapiens, UniProt P23458); assay: In vitro JAK kinase assay (TR-FRET), JAK1; conditions: catalytic domain GST-fusion; ATP 3 μM; peptide 60 nM; 30 minutes at room temperature
T3 construct: human JAK1 (aa 850-1154); GST (N); purchased Carna Biosciences; host or cells: baculovirus expression system
T3 sequence (P23458 850-1154): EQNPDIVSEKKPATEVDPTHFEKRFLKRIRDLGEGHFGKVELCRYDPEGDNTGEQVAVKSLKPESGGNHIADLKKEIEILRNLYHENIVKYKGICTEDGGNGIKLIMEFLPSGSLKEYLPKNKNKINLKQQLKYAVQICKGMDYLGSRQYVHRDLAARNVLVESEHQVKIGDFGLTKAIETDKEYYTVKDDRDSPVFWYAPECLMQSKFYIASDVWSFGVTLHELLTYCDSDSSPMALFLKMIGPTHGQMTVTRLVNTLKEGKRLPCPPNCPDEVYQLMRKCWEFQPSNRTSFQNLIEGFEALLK
Procedure: as §1, §2

T1 sequence (O60674 826-1132): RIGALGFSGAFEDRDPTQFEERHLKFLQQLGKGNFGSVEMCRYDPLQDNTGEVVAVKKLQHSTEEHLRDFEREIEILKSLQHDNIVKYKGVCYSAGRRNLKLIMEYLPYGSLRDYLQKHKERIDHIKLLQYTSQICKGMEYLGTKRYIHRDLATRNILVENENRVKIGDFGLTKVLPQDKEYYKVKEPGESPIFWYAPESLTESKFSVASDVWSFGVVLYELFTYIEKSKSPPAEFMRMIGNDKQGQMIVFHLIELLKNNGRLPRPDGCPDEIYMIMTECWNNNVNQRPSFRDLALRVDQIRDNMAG

Compound	IC50 [1] [nM]	IC50 [2] [nM]	IC50 [3] [nM]
COC[C@H](C)Nc1ccnc(-c2cnn3ccc(C#N)cc23)n1 [Example 5, 3-(4-{[(1S)-2-Methoxy-1-methylethyl]amino}pyrimidin-2-yl)pyrazolo[1,5-a]pyridine-5-carbonitrile]	< 100	< 100	100 to 1000
N#Cc1ccn2ncc(-c3nccc(NCC(F)(F)F)n3)c2c1 [Example 7, 3-{4-[(2,2,2-Trifluoroethyl)amino]pyrimidin-2-yl}pyrazolo[1,5-a]pyridine-5-carbonitrile]	< 100	100 to 1000	> 1000
N#CCC(=O)N1CCC[C@@H](Nc2ccnc(-c3cnn4ccc(C#N)cc34)n2)C1 [Example 14, 3-(4-{[(3R)-1-(Cyanoacetyl)piperidin-3-yl]amino}pyrimidin-2-yl)pyrazolo[1,5-a]pyridine-5-carbonitrile]	< 100	< 100	100 to 1000
N#Cc1ccn2ncc(-c3nccc(N[C@H]4CC[C@H](O)CC4)n3)c2c1 [Example 19, 3-(4-((Trans)-4-Hydroxycyclohexylamino)pyrimidin-2-yl)pyrazolo[1,5-a]pyridine-5-carbonitrile]	< 100	< 100	100 to 1000
C[C@H](Nc1ccnc(-c2cnn3ccncc23)n1)c1ccccc1 [Example 21, (S)—N-(1-phenylethyl)-2-(pyrazolo[1,5-a]pyrazin-3-yl)pyrimidin-4-amine]	< 100	< 100	< 100
N#Cc1ccc(N2CCC[C@@H](Nc3ccnc(-c4cnn5ccncc45)n3)C2)nc1 [Example 25, 6-{(3R)-3-[(2-Pyrazolo[1,5-a]pyrazin-3-ylpyrimidin-4-yl)amino]piperidin-1-yl}nicotinonitrile]	< 100	< 100	100 to 1000
CN(c1ccnc(-c2cnn3ccncc23)n1)[C@@H]1CCCN(C(=O)CC#N)C1 [Example 27, 3-{(3R)-3-[Methyl(2-pyrazolo[1,5-a]pyrazin-3-ylpyrimidin-4-yl)amino]piperidin-1-yl}-3-oxopropanenitrile]	< 100	< 100	100 to 1000
O=C(CC(F)(F)F)N1CCC[C@@H](Nc2nc(-c3cnn4ccncc34)ncc2F)C1 [Example 30, 5-Fluoro-2-pyrazolo[1,5-a]pyrazin-3-yl-N-[(3R)-1-(3,3,3-trifluoropropanoyl)piperidin-3-yl]pyrimidin-4-amine]	< 100	< 100	100 to 1000
Nc1cnc(-c2cnn3ccncc23)nc1NC1CCOCC1 [Example 35, 2-(Pyrazolo[1,5-a]pyrazin-3-yl)-N^4-(tetrahydro-2H-pyran-4-yl)pyrimidine-4,5-diamine]	< 100	100 to 1000	100 to 1000
C[C@H](Nc1nc(-c2cnn3ccncc23)ncc1Cl)c1ccc(F)cn1 [Example 37, (S)-5-Chloro-N-(1-(5-fluoropyridin-2-yl)ethyl)-2-(pyrazolo[1,5-a]pyrazin-3-yl)pyrimidin-4-amine]	< 100	< 100	< 100
